Test results published in BindingDB's records for doi:10.1016/j.jmb.2007.03.021 (University of Marburg, 2007).

Molecular target: Aldo-keto reductase family 1 member B1 (Homo sapiens, UniProt P15121)
Assay: Enzyme Inhibition Assay
Conditions: pH 6.2; 30 °C
Procedure: The activity of the test enzyme was determined spectrophotometrically by monitoring the change in absorbance at 340 nm, which is due to the oxidation of NADPH or the reduction of NAD+ catalyzed by ALR2. The determination of the IC50 values was performed by using linear regression analysis of the log dose response curve.

Compound | IC50
Nc1cccc2ccc3c(c12)C(=O)N(CC(=O)O)S3(=O)=O [2-(13-amino-3,5,5-trioxo-5-thia-4-azatricyclo[7.4.0.0^{2,6}]trideca-1,6,8,10,12-pentaen-4-yl)acetic acid] | 100 µM
O=C(O)CN1C(=O)c2c(ccc3c([N+](=O)[O-])cccc23)S1(=O)=O [2-(10-nitro-3,5,5-trioxo-5-thia-4-azatricyclo[7.4.0.0^{2,6}]trideca-1,6,8,10,12-pentaen-4-yl)acetic acid] | 180 µM
O=C(O)CN1C(=O)c2c(ccc3cccc([N+](=O)[O-])c23)S1(=O)=O [2-(13-nitro-3,5,5-trioxo-5-thia-4-azatricyclo[7.4.0.0^{2,6}]trideca-1,6,8,10,12-pentaen-4-yl)acetic acid] | 190 µM

Continued, values first:

IC50 | Compound
0.14 µM | O=C(O)CN1C(=O)c2c(c(C(=O)O)cc3ccccc23)S1(=O)=O [2-(carboxymethyl)-1-oxo-1,2-dihydronaphtho[1,2-d]isothiazole-4-carboxylic acid 3,3-dioxide]
10 µM | O=C(O)CN1C(=O)c2c(ccc3ccccc23)S1(=O)=O [2-(3,5,5-trioxo-5-thia-4-azatricyclo[7.4.0.0^{2,6}]trideca-1,6,8,10,12-pentaen-4-yl)acetic acid]
100 µM | Nc1cccc2c3c(ccc12)S(=O)(=O)N(CC(=O)O)C3=O [2-(10-amino-3,5,5-trioxo-5-thia-4-azatricyclo[7.4.0.0^{2,6}]trideca-1,6,8,10,12-pentaen-4-yl)acetic acid]
0.55 µM | O=C(O)COC(=O)c1cc2ccccc2c2c1S(=O)(=O)N(CC(=O)O)C2=O [2-{[4-(carboxymethyl)-3,5,5-trioxo-5-thia-4-azatricyclo[7.4.0.0^{2,6}]trideca-1,6,8,10,12-pentaen-7-yl]carbonyloxy}acetic acid]
88 µM | CN1C(=O)c2c(c(C(=O)O)cc3ccccc23)S1(=O)=O [4-methyl-3,5,5-trioxo-5-thia-4-azatricyclo[7.4.0.0^{2,6}]trideca-1,6,8,10,12-pentaene-7-carboxylic acid]
